Results from the supplement of paper PMC10307832.

How the values were obtained:
Assay in all cases: relative viability (nuclei count vs DMSO), 5 days (fraction); higher = more cells survive
BI-2536 + Bortezomib = compound: CC[C@@H]1C(=O)N(C)c2cnc(Nc3ccc(C(=O)NC4CCN(C)CC4)cc3OC)nc2N1C1CCCC1 [BI-2536] + CC(C)C[C@H](NC(=O)[C@H](Cc1ccccc1)NC(=O)c1cnccn1)B(O)O [Bortezomib] (partner 0.002 µM)
Outline: (§1)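 Lung cancer cell lines in 1536-well plates were dosed by pin tool the day after seeding, either with one drug alone or with a fixed anchor-drug dose plus five library-drug doses (not always all listed) in √10 steps. After 5 days, cells were fixed and their nuclei stained in one step (final 0.05% Triton X-100, 1% formaldehyde, 1 ug/ml Hoechst), then counted on 4× images. Relative viability is the nuclei count in treated wells divided by that in vehicle wells. Values are medians of duplicate plates.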

BI-2536 + OSI-027 = compound: CC[C@@H]1C(=O)N(C)c2cnc(Nc3ccc(C(=O)NC4CCN(C)CC4)cc3OC)nc2N1C1CCCC1 [BI-2536] + COc1cccc2cc(-c3nc([C@H]4CC[C@H](C(=O)O)CC4)n4ncnc(N)c34)[nH]c12 [OSI-027] (partner 0.5 µM)
Outline: as §1

[1] = compound: CC1CC(=O)N(C2=CN=C(N=C2N1C3CCCC3)NC4=C(C=C(C=C4)C(=O)NC5CCN(CC5)C)OC)C [NPK76-II-72-1] + C[C@]1(O)C[C@@H](c2nc(-c3ccc4ccc(-c5ccccc5)nc4c3)c3c(N)nccn32)C1 [Linsitinib] (partner 1 µM)
Outline: as §1

BI-2536 + Foretinib = compound: CC[C@@H]1C(=O)N(C)c2cnc(Nc3ccc(C(=O)NC4CCN(C)CC4)cc3OC)nc2N1C1CCCC1 [BI-2536] + COc1cc2c(Oc3ccc(NC(=O)C4(C(=O)Nc5ccc(F)cc5)CC4)cc3F)ccnc2cc1OCCCN1CCOCC1 [Foretinib] (partner 0.25 µM)
Outline: as §1

## UMC-11
BI-2536 + Bortezomib; first compound 0.01 µM
  relative viability: 0.601
BI-2536 + Bortezomib; first compound 0.03162 µM
  relative viability: 0.414
BI-2536 + Bortezomib; first compound 0.1 µM
  relative viability: 0.175
BI-2536 + Bortezomib; first compound 0.3162 µM
  relative viability: 0.134
BI-2536 + Bortezomib; first compound 1 µM
  relative viability: 0.104
BI-2536 + OSI-027; first compound 0.01 µM
  relative viability: 0.5
BI-2536 + OSI-027; first compound 0.03162 µM
  relative viability: 0.27
BI-2536 + OSI-027; first compound 0.1 µM
  relative viability: 0.138
BI-2536 + OSI-027; first compound 0.3162 µM
  relative viability: 0.192
BI-2536 + OSI-027; first compound 1 µM
  relative viability: 0.158
[1]; first compound 0.01 µM
  relative viability: 1
[1]; first compound 0.03162 µM
  relative viability: 1.08
[1]; first compound 0.1 µM
  relative viability: 1
[1]; first compound 0.3162 µM
  relative viability: 0.927
[1]; first compound 1 µM
  relative viability: 0.976
BI-2536 + Foretinib; first compound 0.01 µM
  relative viability: 0.927
BI-2536 + Foretinib; first compound 0.03162 µM
  relative viability: 0.661
BI-2536 + Foretinib; first compound 0.1 µM
  relative viability: 0.174
BI-2536 + Foretinib; first compound 0.3162 µM
  relative viability: 0.19
BI-2536 + Foretinib; first compound 1 µM
  relative viability: 0.191
